Key:
[1] = system: human prostate cancer cell line PC3; test: MTT assay, PC3 cells; assay type: cell-based; conditions: for inhibition at 10 µM: PC-3, 10 μM, 72 h, read-out: Inhibition rates against different cells (%) PC3; for IC50: PC-3, 72 h after treatment
Protocol: (§1) The in vitro antitumor activity of the newly synthesized compounds 5a–5n were evaluated against a panel of three human cancer cell lines, including human gastric cancer cell line MGC-803, human prostate cancer cell line PC3, and human breast cancer cell line Bcap-37, and one normal cell line NIH3T3 (mouse embryo fibroblast cell line) by MTT method. Adriamycin (ADM) was chosen as a reference drug due to its availability and widespread use. Each experiment was repeated at least three times.
(§2) Human gastric cancer cell line MGC-803, human prostate cancer cell line PC3, and human breast cancer cell line Bcap-37 and one normal cell line NIH3T3 were obtained from Cell Bank of Type Culture Collection of Chinese Academy of Sciences (Shanghai, China). NIH3T3 was routinely maintained in a DMEM medium, while all the other cell lines were cultured in a 1640 medium. All the cells were grown in the medium supplemented with 10% FBS at 37 °C with 5% CO2.
(§3) The growth-inhibitory effects of the test compounds were determined on MGC-803, PC3, Bcap-37, and NIH3T3 cells. All cell types were seeded into 96-well plates at a density of 2 × 10^3 cells/well 100 μL of the proper culture medium and incubated with increasing concentrations of the compounds at 37 °C under cell culturing conditions. An MTT assay (Roche Molecular Biochemicals, 1465-007) was performed 72 h later according to the instructions provided by Roche. The precipitated formazan crystals were dissolved in SDS, and the absorbance was read at 595 nm with a microplate reader (BIO-RAD, model 680), which is directly proportional to the number of living cells in culture. The experiment was performed in triplicate. The percentage cytotoxicity was calculated using the formula. %Cytotoxicity=Controlabs-Blankabs-Testabs-Blankabs/Controlabs-Blankabs×100

[2] = system: human breast cancer cell line Bcap-37; test: MTT assay, Bcap-37 cells; assay type: cell-based; conditions: for inhibition at 10 µM: Bcap37, 10 μM, 72 h, read-out: Inhibition rates against different cells (%) Bcap-37; for IC50: Bcap37, 72 h after treatment
Protocol: as §1, §2, §3

[3] = system: human gastric cancer cell line MGC-803; test: MTT assay, MGC-803 cells; assay type: cell-based; conditions: for inhibition at 10 µM: 72 h, read-out: Inhibition rates against different cells (%) MGC-803; for IC50: 72 h after treatment
Protocol: as §1, §2, §3

[4] = system: normal cell line NIH3T3 (mouse embryo fibroblast cell line); test: MTT assay, NIH3T3 normal cells; assay type: cell-based; conditions: 72 h, read-out: Inhibition rates against different cells (%) NIH3T3
Protocol: as §1, §2, §3

Row | melting point [°C] | IC50 [1] [µM] | IC50 [2] [µM] | IC50 [3] [µM] | Compound | inhibition at 10 µM [1] [%] | inhibition at 10 µM [2] [%] | inhibition at 10 µM [3] [%] | inhibition at 10 µM [4] [%]
1 | 198 to 200 | 8.12 ± 0.46 | 8.92 ± 0.58 | 2.94 ± 0.32 | Cc1cccc2c(Oc3ccccc3/C=C/C(=O)/C=C/c3cc([N+](=O)[O-])ccc3Cl)ncnc12 [Compound 5k, (1E,4E)-1-(2-chloro-5-nitrophenyl)-5-(2-((8-methylquinazolin-4-yl)oxy)phenyl)penta-1,4-dien-3-one] | 76.3 ± 2.5 | 60.2 ± 1.4 | 82.1 ± 3 | 3 ± 2.3
2 |  | 1.01 ± 0.2 | 1.9 ± 0.25 | 0.74 ± 0.24 | COc1cccc2c1C(=O)c1c(O)c3c(c(O)c1C2=O)C[C@@](O)(C(=O)CO)C[C@@H]3O[C@H]1C[C@H](N)[C@H](O)[C@H](C)O1 [ADM, Adriamycin, reference compound] | 91.2 ± 0.4 | 94.5 ± 0.9 | 97.5 ± 1.2 | 100 ± 0.7
3 | 122 to 123 | 2.18 ± 0.31 | 5.61 ± 0.5 | 2.02 ± 0.37 | COc1ccc(OC)c(/C=C/C(=O)/C=C/c2ccccc2Oc2ncnc3ccc(C)cc23)c1 [Compound 5g] | 83.1 ± 2.8 | 74.9 ± 2 | 85.9 ± 1.2 | 74.3 ± 0.9
4 |  | 9.24 ± 0.46 | 11.7 ± 0.39 | 7.69 ± 0.37 | Cc1ccc2ncnc(Oc3ccccc3/C=C/C(=O)/C=C/c3ccccc3F)c2c1 [Compound 5a, (1E,4E)-1-(2-fluorophenyl)-5-(2-((6-methylquinazolin-4-yl)oxy)phenyl)penta-1,4-dien-3-one] | 68.5 ± 2.3 | 44.1 ± 2.6 | 71.9 ± 0.9 | 65.7 ± 1.3
5 | 173 to 176 | 7.85 ± 0.32 | 9.34 ± 0.52 | 5.44 ± 0.45 | Cc1ccc2ncnc(Oc3ccccc3/C=C/C(=O)/C=C/c3ccc(Cl)cc3)c2c1 [Compound 5c, (1E,4E)-1-(4-chlorophenyl)-5-(2-((6-methylquinazolin-4-yl)oxy)phenyl)penta-1,4-dien-3-one] | 76.5 ± 1.7 | 54.2 ± 1.1 | 79.2 ± 2.8 | 16.1 ± 2.7
6 |  | 11.7 ± 0.48 | 15.6 ± 0.51 | 9.06 ± 0.4 | Cc1cccc2c(Oc3ccccc3/C=C/C(=O)/C=C/c3ccccc3F)ncnc12 [Compound 5h, (1E,4E)-1-(2-fluorophenyl)-5-(2-((8-methylquinazolin-4-yl)oxy)phenyl)penta-1,4-dien-3-one] | 43.7 ± 12.1 | 36.6 ± 2.7 | 62.3 ± 1.4 | 13.4 ± 2.2
7 | 161 to 163 | 3.79 ± 0.47 | 7.82 ± 0.39 | 2.05 ± 0.39 | Cc1cccc2c(Oc3ccccc3/C=C/C(=O)/C=C/c3c(Cl)cccc3Cl)ncnc12 [Compound 5m, (1E,4E)-1-(2,6-dichlorophenyl)-5-(2-((8-methylquinazolin-4-yl)oxy)phenyl)penta-1,4-dien-3-one] | 81.2 ± 2.8 | 66.4 ± 1.5 | 81.1 ± 1.7 | 12.4 ± 2.5
8 | 176 to 178 | 4.16 ± 0.43 | 8.7 ± 0.54 | 3.33 ± 0.42 | COc1ccc(OC)c(/C=C/C(=O)/C=C/c2ccccc2Oc2ncnc3c(C)cccc23)c1 [Compound 5n, (1E,4E)-1-(2,5-dimethoxyphenyl)-5-(2-((8-methylquinazolin-4-yl)oxy)phenyl)penta-1,4-dien-3-one] | 69 ± 1.7 | 55.8 ± 1.1 | 78.7 ± 2.7 | 29.6 ± 2.4
9 | 161 to 163 | 8.64 ± 0.47 | 12.1 ± 0.31 | 6.42 ± 0.44 | Cc1cccc2c(Oc3ccccc3/C=C/C(=O)/C=C/c3ccc(Cl)cc3)ncnc12 [Compound 5j, (1E,4E)-1-(4-chlorophenyl)-5-(2-((8-methylquinazolin-4-yl)oxy)phenyl)penta-1,4-dien-3-one] | 71.9 ± 3.1 | 45.4 ± 2.2 | 76.3 ± 0.8 | 41 ± 2.1
10 | 152 to 154 | 8.12 ± 0.46 | 10.1 ± 0.67 | 5.2 ± 0.51 | Cc1ccc2ncnc(Oc3ccccc3/C=C/C(=O)/C=C/c3ccccc3Cl)c2c1 [Compound 5b, (1E,4E)-1-(2-chlorophenyl)-5-(2-((6-methylquinazolin-4-yl)oxy)phenyl)penta-1,4-dien-3-one] | 78.7 ± 2.4 | 57.3 ± 2 | 83.5 ± 1.5 | 15.4 ± 1.5
11 | 211 to 214 | 4.71 ± 0.36 | 9.6 ± 0.42 | 1.89 ± 0.26 | Cc1ccc2ncnc(Oc3ccccc3/C=C/C(=O)/C=C/c3ccc(Cl)cc3Cl)c2c1 [Compound 5e, (1E,4E)-1-(2,4-dichlorophenyl)-5-(2-((6-methylquinazolin-4-yl)oxy)phenyl)penta-1,4-dien-3-one] | 75.2 ± 7.8 | 67.3 ± 3.9 | 87 ± 1 | 53.8 ± 1.8
12 |  | 2.68 ± 0.43 | 7.52 ± 0.36 | 1.72 ± 0.22 | Cc1ccc2ncnc(Oc3ccccc3/C=C/C(=O)/C=C/c3cc([N+](=O)[O-])ccc3Cl)c2c1 [Compound 5d, (1E,4E)-1-(2-chloro-5-nitrophenyl)-5-(2-((6-methylquinazolin-4-yl)oxy)phenyl)penta-1,4-dien-3-one] | 86.3 ± 0.8 | 58.5 ± 1.3 | 87.5 ± 0.2 | 71.9 ± 1.4
13 | 175 to 178 | 9.08 ± 0.52 | 9.83 ± 0.46 | 4.33 ± 0.35 | Cc1cccc2c(Oc3ccccc3/C=C/C(=O)/C=C/c3ccc(Cl)cc3Cl)ncnc12 [Compound 5l, (1E,4E)-1-(2,4-dichlorophenyl)-5-(2-((8-methylquinazolin-4-yl)oxy)phenyl)penta-1,4-dien-3-one] | 55.7 ± 1.5 | 54.6 ± 1 | 61.2 ± 1.3 | 0.8 ± 1.6
14 | 152 to 154 | 9.36 ± 0.52 | 10.7 ± 0.62 | 7.78 ± 0.48 | Cc1cccc2c(Oc3ccccc3/C=C/C(=O)/C=C/c3ccccc3Cl)ncnc12 [Compound 5i, (1E,4E)-1-(2-chlorophenyl)-5-(2-((8-methylquinazolin-4-yl)oxy)phenyl)penta-1,4-dien-3-one] | 65.1 ± 2.6 | 47.1 ± 2.6 | 79.4 ± 2.4 | 14.4 ± 2.6

Source: PMC5352699, “Synthesis and in vitro antitumor activity of (1E,4E)-1-aryl-5-(2-((quinazolin-4-yl)oxy)phenyl)-1,4-pentadien-3-one derivatives” (Chemistry Central Journal, 2017)
